Source: ChEMBL document CHEMBL4266057, “Optimization of Preclinical Metabolism for Somatostatin Receptor Subtype 5-Selective Antagonists” (ACS Med Chem Lett, 2018)
One block for each compound: values may come before it.

Assays:
in vitro [1] = details: human, liver microsomes
in vitro [2] = details: rhesus monkey, liver microsomes
[3] = Drug level in rhesus monkey plasma treated with 4-(8-((2,6-diethoxy-4'-fluorobiphenyl-4-yl)methyl)-3-oxo-2,8-diazaspiro[4.5]decan-2-yl)benzoic acid at 50 mg/kg, po qd for 5 days by HPLC analysis; format: ADME, organism-based, Macaca mulatta; details: in vivo, 120 h
[4] = Drug metabolism in rhesus monkey plasma assessed as oxidation of biphenyl ring at 50 mg/kg, po qd for 5 days by HPLC analysis; format: ADME, organism-based, Macaca mulatta; details: in vivo, 120 h
in vivo [5] = details: Sprague-Dawley, rat
[6] = Drug metabolism in rhesus monkey plasma assessed as glucuronidation of carboxylic acid at 50 mg/kg, po qd for 5 days by HPLC analysis; format: ADME, organism-based, Macaca mulatta; details: in vivo, 120 h
[7] = Drug metabolism in rhesus monkey plasma assessed as hydroxylation of benzoic acid at 50 mg/kg, po qd for 5 days by HPLC analysis; format: ADME, organism-based, Macaca mulatta; details: in vivo, 120 h
[8] = Drug metabolism in rhesus monkey plasma assessed as de-ethylation of ethoxyl group at 50 mg/kg, po qd for 5 days by HPLC analysis; format: ADME, organism-based, Macaca mulatta; details: in vivo, 120 h
[9] = Metabolic stability in Beagle dog liver microsomes at 1 uM after 30 mins; format: ADME, Canis lupus familiaris, microsome; details: read-out: Stability
[10] = Fraction unbound in high fat diet fed C57BL/6N mouse plasma at 3 mg/kg, po after 3 hrs; format: ADME, organism-based; details: in vivo
[11] = Metabolic stability in rat liver microsomes at 1 uM after 30 mins; format: ADME, microsome; details: read-out: Stability
in vivo [12] = details: rhesus monkey, po, 5 mg/kg
in vivo [13] = details: Sprague-Dawley, rat, po, 2 mg/kg
in vivo [14] = details: rhesus monkey, plasma, po, 5 mg/kg
in vivo [15] = details: Sprague-Dawley, rat; remark: listed apart in the source
in vivo [16] = details: rhesus monkey, po, 5 mg/kg; remark: listed apart in the source
in vivo [17] = details: Sprague-Dawley, rat, iv, 1 mg/kg

Compound: Cc1cc(-c2ccc(F)c(F)c2F)c(CN2CCC3(CC2)CC(=O)N(c2ccc(C(=O)O)cc2)C3)cc1C(F)(F)F
remaining at 0.5 h, 1 µM (in vitro [1]): 100%
remaining at 0.5 h, 1 µM (in vitro [2]): 94%

Drug metabolism [3]: Metabolite_Detected
Compound: CCOc1cc(CN2CCC3(CC2)CC(=O)N(c2ccc(C(=O)O[C@@H]4O[C@H](C(=O)O)[C@@H](O)[C@H](O)[C@H]4O)cc2)C3)cc(OCC)c1-c1ccc(F)cc1

Compound: Cc1cccc2c(CN3CCC4(CC3)CC(=O)N(c3ccc(C(=O)O)cc3)C4)cn(C(C)C)c12
remaining at 0.5 h, 1 µM (in vitro [1]): 100%
remaining at 0.5 h, 1 µM (in vitro [2]): 95%

Drug metabolism [4]: Metabolite_Detected
AUC (in vivo [5]): 1.67 µM·h
remaining at 0.5 h, 1 µM (in vitro [1]): 92%
Drug metabolism [6]: Metabolite_Detected
Drug metabolism [7]: Metabolite_Detected
Drug metabolism [8]: Metabolite_Detected
remaining at 0.5 h, 1 µM [9]: > 80%
remaining at 0.5 h, 1 µM (in vitro [2]): 28%
Cp(f) [10]: 16 nM
remaining at 0.5 h, 1 µM [11]: > 80%
Compound: CCOc1cc(CN2CCC3(CC2)CC(=O)N(c2ccc(C(=O)O)cc2)C3)cc(OCC)c1-c1ccc(F)cc1

Compound: O=C(O)c1ccc(N2CC3(CCN(Cc4cc(C(F)(F)F)ccc4C4CC4)CC3)OC2=O)cc1
AUC (in vivo [5]): 8.5 µM·h
remaining at 0.5 h, 1 µM (in vitro [1]): 99%
Cmax (in vivo [12]): 2990 nM
bioavailability (in vivo [13]): 85%
remaining at 0.5 h, 1 µM (in vitro [2]): 94%
concentration at 24 h (in vivo [14]): 470 nM
half-life (in vivo [15]): 1.6 h
AUC (in vivo [16]): 31.2 µM·h
clearance (in vivo [17]): 3.4 mL/min/kg
